Test results: ChEMBL document CHEMBL1134720, “Antitumour benzothiazoles. Part 15: The synthesis and physico-chemical properties of 2-(4-aminophenyl)benzothiazole sulfamate salt derivatives” (Bioorg Med Chem Lett, 2001)

Assays:
[1] = Log P (Octanol:buffer pH 7.4); type: physicochemical
[2] = Log P (Cyclohexane:buffer pH 7.4); type: physicochemical
[3] = Solubility of compound at pH 6; type: physicochemical; conditions: buffer
[4] = Solubility of compound at pH 7.1; type: physicochemical; conditions: buffer
[5] = Solubility of compound at pH 7.5; type: physicochemical; conditions: buffer
[6] = Solubility of compound at pH 5.4; type: physicochemical; conditions: buffer
[7] = Antitumor activity expressed as inhibitory concentration against human breast cell line MDA 468(ER-ve); type: functional, cell-based; conditions: MDA-MB-468
MCF7 = experiment: Antitumor activity expressed as inhibitory concentration against human breast cell line MCF-7(ER+ve); type: functional, cell-based
[8] = Delta Log P was determined; type: physicochemical; conditions: octanol/water
[9] = Solubility of compound at pH 9; type: physicochemical; conditions: buffer
[10] = Solubility of compound at pH 4.2; type: physicochemical; conditions: buffer

Compound | logD [1] | logD [2] | solubility [3] [µg/mL] | solubility [4] [µg/mL] | solubility [5] [µg/mL] | solubility [6] [µg/mL] | IC50 [7] [µM] | IC50 (MCF7) [µM] | delta Log P [8] | solubility [9] [µg/mL] | solubility [10] [µg/mL]
Nc1ccc(-c2nc3ccccc3s2)cc1Cl | > 3.3 | > 3.2 | – | – | – | – | – | – | – | – | –
O=S(=O)([O-])Nc1ccc(-c2nc3ccccc3s2)cc1Cl.[Na+] | 0.02 | < 2.19 | 400 | 300 | 300 | 300 | 9 | 0.42 | > 2.17 | 700 | 500
Cc1cc(-c2nc3ccccc3s2)ccc1NS(=O)(=O)[O-].[Na+] | 0.6 | < 3 | – | – | – | – | 0.72 | 0.49 | > 2.4 | – | –
O=S(=O)([O-])Nc1ccc(-c2nc3ccccc3s2)cc1I.[Na+] | 1.8 | 1.9 | – | – | – | – | 1.9 | 1.8 | – | – | –
O=S(=O)(O)Nc1ccc(-c2nc3ccccc3s2)cc1 | 3.4 | – | – | – | – | – | 7.5 | 3.4 | – | – | –

Other lines, results leading:

logD [1] | logD [2] | solubility [3] [µg/mL] | solubility [4] [µg/mL] | solubility [5] [µg/mL] | solubility [6] [µg/mL] | IC50 [7] [µM] | IC50 (MCF7) [µM] | delta Log P [8] | solubility [9] [µg/mL] | solubility [10] [µg/mL] | Compound
> 3.3 | > 2.8 | – | – | – | – | – | – | – | – | – | Nc1ccc(-c2nc3ccccc3s2)cc1Br
3.96 | 2.51 | – | – | – | – | – | – | – | – | – | Cc1cc(-c2nc3ccccc3s2)ccc1N
> 3.3 | > 2.7 | – | – | – | – | – | – | – | – | – | Nc1ccc(-c2nc3ccccc3s2)cc1I
